These are literature values, as cited in US6790668B1, “Monitoring patient compliance and bioavailability of drugs by deproteinizing body fluids” (Fundacao Oswaldo Cruz - Fiocruz, priority 1998, dated 2004).

Each structure is given as a SMILES string.

For data set [1] the following is noted: human body; the rest by the kidneys.
For data set [2] the following is noted: organic solvents; acid pH water.

For the compound `CO[C@H]1/C=C/O[C@@]2(C)Oc3c(C)c(O)c4c(O)c(c(/C=N/N5CCN(C)CC5)c(O)c4c3C2=O)NC(=O)/C(C)=C\C=C\[C@H](C)[C@H](O)[C@@H](C)[C@@H](O)[C@@H](C)[C@H](OC(C)=O)[C@@H]1C` [rifampicin], the “Share of the drug eliminated in the bile” value in data set [1] was “about 80%”. In addition, the Solubility entry in data set [2] is “soluble both in organic solvents and in acid pH water”.
